Assay results from patent publication US20220227792A1, “CARBORANE HYDROXAMIC ACID MATRIX METALLOPROTEINASE AGENTS FOR BORON NEUTRON CAPTURE THERAPY” (LOYOLA UNIVERSITY OF CHICAGO, priority 2019, published 2022).

Columns and labels:
MMP9 (Q279R) = MMP9 (Q279R) (Homo sapiens, UniProt P14780, Q279R); assay: MMP inhibition FRET assay, MMP-9; type: biochemical; conditions: 390 MMP FRET Substrate I, room temperature, 30 minutes, duplicate
Protocol: (§1) Serial dilutions of a compound were prepared with 10% DMSO and 5 μL of the dilution was added to a 50 μL reaction so that the final concentration of DMSO is 1% in all of reactions.
(§2) The enzymes were diluted in 50 mM HEPES buffer pH 7.4, 10 mM CaCl2, 0.05% Brij-35, and 1 mM APMA for activation at 37° C. for 2 hours.
(§3) […] activity assays were performed in duplicate at each concentration. The fluorescent intensity data were analyzed using the computer software, Graphpad Prism. In the absence of the compound, the fluorescent intensity (Ft) in each data set was defined as 100% activity. In the absence of enzyme, the fluorescent intensity (Fb) in each data set was defined as 0% activity. The percent activity in the presence of each compound was calculated according to the following equation: %activity=(F−Fb)/(Ft−Fb), where F=the fluorescent intensity in the presence of the compound.
(§4) The values of % activity versus a series of compound concentrations were then plotted using non-linear regression analysis of Sigmoidal dose-response curve generated with the equation Y=B+(T−B)/1+10^((Log EC50−X)×Hill Slope), where Y=percent activity, B=minimum percent activity, T=maximum percent activity, X=logarithm of compound and Hill Slope=slope factor or Hill coefficient. The IC50 value was determined by the concentration causing a half-maximal percent activity.

MMP-2 = target: T1, MMP-2 (Homo sapiens, UniProt P08253); assay: MMP inhibition FRET assay, MMP-2; type: biochemical; conditions: 390 MMP FRET Substrate I, room temperature, 30 minutes, duplicate; read-out: IC50 MMP2
T1 sequence (P08253 110-660): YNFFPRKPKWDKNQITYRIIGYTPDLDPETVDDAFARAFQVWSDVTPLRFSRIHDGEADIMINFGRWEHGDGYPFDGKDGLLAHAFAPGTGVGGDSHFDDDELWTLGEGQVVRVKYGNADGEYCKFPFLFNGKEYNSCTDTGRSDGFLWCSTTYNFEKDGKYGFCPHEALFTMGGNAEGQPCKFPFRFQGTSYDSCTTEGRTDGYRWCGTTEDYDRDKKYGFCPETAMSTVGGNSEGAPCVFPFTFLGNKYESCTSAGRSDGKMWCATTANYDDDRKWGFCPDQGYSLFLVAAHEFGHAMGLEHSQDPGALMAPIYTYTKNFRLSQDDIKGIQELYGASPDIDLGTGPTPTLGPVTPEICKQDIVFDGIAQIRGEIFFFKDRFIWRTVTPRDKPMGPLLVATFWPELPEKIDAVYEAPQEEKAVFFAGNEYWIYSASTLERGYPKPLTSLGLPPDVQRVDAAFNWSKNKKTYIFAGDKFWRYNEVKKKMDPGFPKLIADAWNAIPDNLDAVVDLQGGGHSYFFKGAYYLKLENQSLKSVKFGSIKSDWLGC
Protocol: as §1, §2, §3, §4

Sequence of MMP9 (Q279R) (P14780 107-707 Q279R limits assumed): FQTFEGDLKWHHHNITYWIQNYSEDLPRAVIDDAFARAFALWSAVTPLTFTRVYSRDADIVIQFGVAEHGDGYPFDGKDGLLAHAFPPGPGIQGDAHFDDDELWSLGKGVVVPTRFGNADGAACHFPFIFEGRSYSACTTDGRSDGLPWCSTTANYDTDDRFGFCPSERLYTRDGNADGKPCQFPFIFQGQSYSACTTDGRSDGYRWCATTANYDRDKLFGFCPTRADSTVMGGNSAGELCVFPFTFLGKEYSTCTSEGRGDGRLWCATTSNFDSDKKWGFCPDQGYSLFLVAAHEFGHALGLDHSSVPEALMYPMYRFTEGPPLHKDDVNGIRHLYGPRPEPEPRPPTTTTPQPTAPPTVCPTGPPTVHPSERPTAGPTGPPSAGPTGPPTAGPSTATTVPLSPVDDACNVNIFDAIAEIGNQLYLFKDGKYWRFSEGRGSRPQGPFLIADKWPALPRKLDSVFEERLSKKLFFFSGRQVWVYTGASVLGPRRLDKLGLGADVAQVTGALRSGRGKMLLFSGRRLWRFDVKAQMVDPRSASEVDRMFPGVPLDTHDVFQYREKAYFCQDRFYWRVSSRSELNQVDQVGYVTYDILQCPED

## COc1ccc(S(=O)(=O)N(CC(=O)NO)CC(C)C)cc1 [NNGH, N-Isobutyl-N-(4-methoxyphenylsulfonyl)glycyl Hydroxamic Acid]
MMP9 (Q279R)
  IC50: 4 nM
MMP-2
  IC50: 4 nM
